Measured values from publication PMC6309140, “Synthesis and Evaluation of a New Type of Small Molecule Epigenetic Modulator Containing Imidazo[1,2-b][1,2,4]triazole Motif” (Frontiers in Chemistry, 2018).
Entries after “also recorded” stand apart in the source; their conditions may differ. Where two headings read alike, the source gives them in different places.

Key:
[1] = system: EGFP reporter gene silenced by DNA methylation (B2-17 cells); assay: Compound effective assay: derepression of EGFP reporter in B2-17 reporter cells (image-based, titration); format: cell-based; conditions: for Maximal RGFP% (maximal percentage of EGFP+ cells in the dose-response curve) / Emax / EC50: B2-17 cells, 72 h treatment; for activity of derepressing the EGFP reporter gene silenced by DNA methylation (in words): compared with hit compound LX-3; for Emax: 72 h, read-out: Maximal RGFP% (maximal percentage of EGFP+ cells in the dose-response curve); for EC50: dose-response of EGFP+ cells, read-out: EC50 (relative half maximal effect concentration)
Text: (§1) To identify novel small molecules targeting gene repression, we devised an image-based high-throughput screening system using the engineered HEK 293 F cell (termed as B2-17 cells) as report cell line. A chemical library containing 308,251 small molecules was screened in this system. Purposed for unbiased compound screening, this library had been used in a variety of studies (Sun et al., [2012]; Wang et al., [2013]; Dong et al., [2015]; Li et al., [2016]). Hundred and fifty eight compounds which reactivated reporter genes in more than half of cells were selected as hits. Next, we performed titration experiments for all these hits in the B2-17 cell line. The efficacy of each compound was evaluated by its maximal percentage of EGFP^+ cells in the dose-response curve (maximal RGFP) and relative half maximal effect concentration (EC50). The toxicity of the hits was also tested in parallel, measured by number of viable cells in each treatment. The assay is based on quantitative analysis of ATP, an indicator of metabolically active cells. For each compound, we calculated the relative half maximal growth inhibitory concentration (IC50), based on the abovementioned assay.
Procedure for cell culture and establishment of the reporter cell line were reported in our previously published paper (Li et al., [2018]).
Before plating cells, 384-well plates (ViewPlate, PerkinElmer) were coated with PDL (poly-D-lysine, Sigma). For each well, 1,300 B2-17 cells were plated by using a Matrix Wellmate microplate dispenser (Thermo Scientific). Then, 0.25 μL of compound was added to each well by using a versatile pipetting robot, the Biomek FX workstation (Beckman Coulter), to give a final compound concentration of 5 μM. After treatment for 72 h, the cell nuclei were stained by Hoechst 33342 (Sigma) before imaging.
The cells were imaged with Opera LX (PerkinElmer, three views per well by using 10 x (air) objective lens). Images were analyzed with the Columbus system, the mean percentage of EGFP+ cells (RGFP) was obtained to extrapolate the number of EGFP expressing cells and Hoechst-stained nuclei.
For the titration assay, the positive compounds were diluted in DMSO at concentrations ranging from 0.625 to 4 mM. Then, the B2-17 cells were treated by gradient compound and imaged as described before.
For each compound, a dose-response series was generated by using Origin 6.0 Pro software. The dot plot was fit by a DoseResp curve and then the EC50 was calculated.

HEK 293 F cells = assay: Viability assays (CellTiter-Glo, ATP); format: cell-based; conditions: for IC50: viable cells by ATP quantitation, 3 days incubation, Figure 2 says B2-17 cells, method says HEK 293 F cells, read-out: IC50 (relative half maximal growth inhibitory concentration)
Text: as §1
HEK 293 F cells were plated in 384-well, flat-bottom, tissue culture dishes (Corning) and treated with compounds, incubated 3 days, and assayed for viability using the CellTiter-Glo Luminescent Cell Viability Assay (Promega) according to the manufacturer's protocol. The […] with an EnSight plate reader (Perkin Elmer). Data were normalized to the untreated control (100% viability). Each treatment was tested in two independent assays, each containing 3 replicates. The titration-viability curves of each compound were also generated by using Origin 6.0 Pro software.

For “2-(4-bromophenyl)-1-(2-(thiazol-2-yl)-4H-benzo[4,5] imidazo[1,2-b][1,2,4]triazol-4-yl)ethan-1-one [31b]”, the “Maximal RGFP% (maximal percentage of EGFP+ cells in the dose-response curve)” value [1] was 6.0%, the “activity of derepressing the EGFP reporter gene silenced by DNA methylation (in words)” value (“activity” for short) [1] was “loss of activity” and the IC50 (HEK 293 F cells) was 11.5 µM.

In the case of “3-(4-bromophenyl)-1-(2-(thiazol-2-yl)-4H-benzo[4,5] imidazo[1,2-b][1,2,4]triazol-4-yl)propan-1-one [31c]”, the “Maximal RGFP% (maximal percentage of EGFP+ cells in the dose-response curve)” value [1] is reported as 9.0%, the “activity” value [1] is reported as “loss of activity” and the IC50 (HEK 293 F cells) is reported as 15.9 µM.

For `O=C(Cn1c2ccccc2n2nc(-c3cccs3)nc12)c1ccccc1` [7a, 1-phenyl-2-(2-(thiophen-2-yl)-4H-benzo[4,5]imidazo[1,2-b][1,2,4]triazol-4-yl)ethan-1-one], the Emax [1] was 7%, the “activity” value [1] was “lost” and the IC50 (HEK 293 F cells; HEK293F, 72 h) was 1.9 µM.

`COc1ccc(C(=O)Cn2c3ccccc3n3nc(-c4cccs4)nc23)cc1` [7b, 1-(4-methoxyphenyl)-2-(2-(thiophen-2-yl)-4H-benzo[4,5]imidazo[1,2-b][1,2,4]triazol-4-yl)ethan-1-one] was tested, and the Emax [1] was 23%, the EC50 [1] was 6.2 µM and the “activity” value [1] was “decreased to some extent”. The IC50 (HEK 293 F cells; HEK293F, 72 h) was 3.1 µM.

For `O=C(Cn1c2ccccc2n2nc(-c3cccs3)nc12)c1ccc([N+](=O)[O-])cc1` [7c, 1-(4-nitrophenyl)-2-(2-(thiophen-2-yl)-4H-benzo[4,5]imidazo[1,2-b][1,2,4]triazol-4-yl)ethan-1-one], the Emax [1] was 41%, the EC50 [1] was 14.9 µM and the “activity” value [1] was “decreased to some extent”. It also gave an IC50 (HEK 293 F cells; HEK293F, 72 h) of 11.9 µM.

With `COC(=O)c1ccc(C(=O)Cn2c3ccccc3n3nc(-c4cccs4)nc23)cc1` [7d, methyl 4-(2-(2-(thiophen-2-yl)-4H-benzo[4,5]imidazo[1,2-b][1,2,4]triazol-4-yl)acetyl)benzoate] the Emax [1] was 73%, the EC50 [1] was 2.4 µM and the “activity” value [1] was “significantly increased; also recorded: slightly better activity”. The IC50 (HEK 293 F cells; HEK293F, 72 h) was 10.2 µM and the “toxicity (in words)” value (HEK 293 F cells; compared with hit compound LX-3) was “less toxicity”.

With `O=C(Cn1c2ccccc2n2nc(-c3cccs3)nc12)c1ccc(C(F)(F)F)cc1` [7e, 2-(2-(thiophen-2-yl)-4H-benzo[4,5]imidazo[1,2-b][1,2,4]triazol-4-yl)-1-(4-(trifluoromethyl)phenyl)ethan-1-one] the Emax [1] was 81%, the EC50 [1] was 3.7 µM and the “activity” value [1] was “remained the same”. For the same compound, the IC50 (HEK 293 F cells; HEK293F, 72 h) was 4.7 µM.

`O=C(Cn1c2ccccc2n2nc(-c3cccs3)nc12)c1ccc(F)cc1F` [7f, 1-(2,4-difluorophenyl)-2-(2-(thiophen-2-yl)-4H-benzo[4,5]imidazo[1,2-b][1,2,4]triazol-4-yl)ethan-1-one] was tested, and the Emax [1] was 16%, the “activity” value [1] was “significantly decreased” and the IC50 (HEK 293 F cells; HEK293F, 72 h) was 17.8 µM.

With `O=C(Cn1c2ccccc2n2nc(-c3cccs3)nc12)c1c(F)c(F)c(F)c(F)c1F` [7g, 1-(perfluorophenyl)-2-(2-(thiophen-2-yl)-4H-benzo[4,5]imidazo[1,2-b][1,2,4]triazol-4-yl)ethan-1-one] the Emax [1] was 10%, the “activity” value [1] was “significantly decreased” and the IC50 (HEK 293 F cells; HEK293F, 72 h) was 1.1 µM.

In the case of `O=C(Cn1c2ccccc2n2nc(-c3cccs3)nc12)c1ccc(O)cc1` [7h, 1-(4-hydroxyphenyl)-2-(2-(thiophen-2-yl)-4H-benzo[4,5]imidazo[1,2-b][1,2,4]triazol-4-yl)ethan-1-one], the Emax [1] is reported as 56%, the EC50 [1] is reported as 5.8 µM and the “activity” value [1] is reported as “decreased to some extent”. For the same compound, the IC50 (HEK 293 F cells; HEK293F, 72 h) was 16.7 µM.

For `Nc1ccc(C(=O)Cn2c3ccccc3n3nc(-c4cccs4)nc23)cc1` [7i, 1-(4-aminophenyl)-2-(2-(thiophen-2-yl)-4H-benzo[4,5]imidazo[1,2-b][1,2,4]triazol-4-yl)ethan-1-one], the Emax [1] was 19%, the “activity” value [1] was “decreased to some extent” and the IC50 (HEK 293 F cells; HEK293F, 72 h) was 5.3 µM.

For `O=C(O)c1ccc(C(=O)Cn2c3ccccc3n3nc(-c4cccs4)nc23)cc1` [7j, 4-(2-(2-(thiophen-2-yl)-4H-benzo[4,5]imidazo[1,2-b][1,2,4]triazol-4-yl)acetyl)benzoic acid], the Emax [1] was 7%, the “activity” value [1] was “decreased to some extent” and the IC50 (HEK 293 F cells; HEK293F, 72 h) was 4.8 µM.

Work on `O=C(Cn1c2ccccc2n2nc(-c3cccs3)nc12)c1nccs1` [9a, 1-(thiazol-2-yl)-2-(2-(thiophen-2-yl)-4H-benzo[4,5]imidazo[1,2-b][1,2,4]triazol-4-yl)ethan-1-one] yielded an Emax [1] of 30%, an EC50 [1] of 4.7 µM and an IC50 (HEK 293 F cells; HEK293F, 72 h) of 8.7 µM.

`O=C(Cn1c2ccccc2n2nc(-c3cccs3)nc12)c1ccco1` [9b, 1-(furan-2-yl)-2-(2-(thiophen-2-yl)-4H-benzo[4,5]imidazo[1,2-b][1,2,4]triazol-4-yl)ethan-1-one] gave an Emax [1] of 6.6%.

With `O=C(Cn1c2ccccc2n2nc(-c3cccs3)nc12)c1cccs1` [9c, 1-(thiophen-2-yl)-2-(2-(thiophen-2-yl)-4H-benzo[4,5]imidazo[1,2-b][1,2,4]triazol-4-yl)ethan-1-one] the Emax [1] was 40%, the EC50 [1] was 2.3 µM and the IC50 (HEK 293 F cells; HEK293F, 72 h) was 4.9 µM.

Work on `O=C(Cn1c2ccccc2n2nc(-c3cccs3)nc12)c1ccncc1` [9d, 1-(pyridin-4-yl)-2-(2-(thiophen-2-yl)-4H-benzo[4,5]imidazo[1,2-b][1,2,4]triazol-4-yl)ethan-1-one] yielded an Emax [1] of 35%, an EC50 [1] of 13.6 µM and an IC50 (HEK 293 F cells; HEK293F, 72 h) of 6.5 µM.

In the case of `Cc1cc2c(cc1C)n1nc(-c3cccs3)nc1n2CC(=O)c1ccc(Br)cc1` [14a, 1-(4-bromophenyl)-2-(6,7-dimethyl-2-(thiophen-2-yl)-4H-benzo[4,5]imidazo[1,2-b][1,2,4]triazol-4-yl)ethan-1-one], the Emax [1] is reported as 26%, the EC50 [1] is reported as 28 µM and the “activity” value [1] is reported as “significantly decreased”. It also gave an IC50 (HEK 293 F cells; HEK293F, 72 h) of 3.9 µM.

In the case of `O=C(Cn1c2ccc(Br)cc2n2nc(-c3cccs3)nc12)c1ccc(Br)cc1` [17a, 2-(7-bromo-2-(thiophen-2-yl)-4H-benzo[4,5]imidazo[1,2-b][1,2,4]triazol-4-yl)-1-(4-bromophenyl)ethan-1-one], the Emax [1] is reported as 41%, the EC50 [1] is reported as 19.4 µM and the “activity” value [1] is reported as “significantly decreased”. The IC50 (HEK 293 F cells; HEK293F, 72 h) was 6.6 µM.

Work on `O=C(Cn1c2ccc(Br)cc2n2nc(-c3ccc(Br)s3)nc12)c1ccc(Br)cc1` [17c, 2-(7-bromo-2-(5-bromothiophen-2-yl)-4H-benzo[4,5]imidazo[1,2-b][1,2,4]triazol-4-yl)-1-(4-bromophenyl)ethan-1-one] yielded an Emax [1] of 28%, an EC50 [1] of 21.8 µM and an IC50 (HEK 293 F cells; HEK293F, 72 h) of 3.8 µM.

With `O=C(Cn1c2ccccc2n2nc(-c3ccccc3)nc12)c1ccc(Br)cc1` [22a, 1-(4-bromophenyl)-2-(2-phenyl-4H-benzo[4,5]imidazo[1,2-b][1,2,4]triazol-4-yl)ethan-1-one] the Emax [1] was 6%, the “activity” value [1] was “decreased significantly or even disappeared” and the IC50 (HEK 293 F cells; HEK293F, 72 h) was 4.4 µM.

`CC(C)(C)c1nc2n(CC(=O)c3ccc(Br)cc3)c3ccccc3n2n1` [22g, 1-(4-bromophenyl)-2-(2-(tert-butyl)-4H-benzo[4,5]imidazo[1,2-b][1,2,4]triazol-4-yl)ethan-1-one] gave an IC50 (HEK 293 F cells; HEK293F, 72 h) of 8.3 µM.

In the case of `N#Cc1ccc(-c2nc3n(CC(=O)c4ccc(Br)cc4)c4ccccc4n3n2)s1` [compound 27, 5-(4-(2-(4-bromophenyl)-2-oxoethyl)-4H-benzo[4,5]imidazo[1,2-b][1,2,4]triazol-2-yl)thiophene-2-carbonitrile], the Emax [1] is reported as 6% and the “activity” value [1] is reported as “significant decrease or disappearance”.
